Test results as given in US6689381B2, “Liposomal benzoquinazoline thymidylate synthase inhibitor formulations” (OSI Pharmaceuticals, Inc., priority 2000, dated 2004).
“And” between values parts separate entries of the source, which are not always exact repeats. Equal values may be shown once. Read-outs that look alike come from different tables or passages of the source.

What was measured:
[1] = Example 2: single dose plasma pharmacokinetics of free GW1843 and four liposomal formulations, 1 mg/kg iv bolus; type: in vivo, Sprague Dawley rats; settings: single 1 mg/kg iv bolus; for GW1843 Plasma Concentration: listed as Free GW1843, 1 mg/kg
From the text: The plasma pharmacokinetics of free GW1843 and 4 different liposome formulations (see Table 1A; GC-1007-27, GC-1020-36, NA-1022-63A, and NA-1022-59A) of GW1843 in rats following a single intravenous bolus administration are compared. The liposome formulations differed by the pH utilized to load the liposome. NX1843 lot nos. GC-1007-27, GC-1020-36, NA-1022-63A, and NA-1022-59A were loaded at pH 7.0, 7.4, 7.3 and 7.5, respectively.
A total of fifteen Sprague Dawley rats were used in the study. Each rat weighed approximately 250 grams. Three animals were assigned to each group (five groups in total). Individual animals were weighed and dosed at 1 mg/kg body weight by intravenous bolus administration into the tail vein while under isoflurene anesthesia. EDTA blood samples were taken at the time points shown in Table 2 while under isoflurene anesthesia and immediately processed into plasma. Plasma was stored at −20° C. until analysis.
Plasma samples were prepared and analyzed for GW1843 by the use of a non-validated HPLC assay. Following methanol precipitation of plasma protein, the soluble GW1843 was separated by C-18 reverse phase column chromatography. Separation was achieved by an isocratic method. Running buffer consisted of 80% acetonitrile and 20% 100 mM ammonium acetate pH=5.3. Area under the peak versus concentration of GW1843 was used to construct the standard curve.
Pharmacokinetic parameters were determined by non-compartmental analysis (WinNonlin version 1.5). Pharmacokinetic parameters were determined for each experimental group using the average concentration versus time values for each group. The following parameters were calculated: Maximum plasma concentration (Cmax); area under the plasma concentration versus time curve extrapolating to infinite time (AUCinf) or to last time point (AUClast); elimation half-life (Elim.T½); mean residence time (MRT) plasma clearance (Cl) and volume of distribution at steady state (Vss).

[2] = test system: human colon tumor xenograft model (HCT-8, thymidine kinase (TK)-/-); type: in vivo; settings: for durable cures: until termination at day 57
From the text: (§1) Female Nu/Nu mice (18-24 g, 10-14 weeks old) were obtained from Harlan Sprague Dawley, and housed in microisolator filtration racks and maintained with filtered acidified water and sterile lab chow ad libitum. The human colon tumor xenograft model (HCT-8, thymidine kinase (TK)−/−) was obtained from Dr. Youcef M. Rustum (Roswell Park, Buffalo, N.Y.), and established in-house as a useful model for evaluation of thymidylate synthase inhibitors. Animals were allowed to acclimate to their new environment for 1 week prior to tumor cell implantation. Tumors were established by injecting harvested tumor cells in a single subcutaneous site on the flank of the mice in the axillary region. The tumors were grown until approximately 200+/−50 mm^3 in size. The animals were then sorted according to body weight, grouped four animals/cage, and tattooed on the tail for permanent identification. Groups consisting of 8 tumor-bearing mice each were administered weekly doses of experimental agents by IV bolus injection through the tail vein. Tumor volumes were determined with vernier caliper measurements taken at right angles using the formula, (L×W^2/2) and body weights, were collected twice weekly. Data was plotted as % change in body weight vs. time in days, and % tumor volume increase vs. days.
(§2) T=(mean) time in days for treated group to reach cutoff size (2 grams)
(§3) C=(mean) time in days for control group to reach cutoff size (2 grams)
(§4) WC is the mean tumor weight of control group at time x
(§5) Wt is mean tumor weight of treated group at time x
% Regression=100 (Wo−Wi)/Wo; where Wo is the mean tumor weight for treated group at the initiation of treatment and Wi=the mean tumor weight for that group at time some time x after treatment. Many times the time x=24-48 hr after the final dose of therapy.
The log10 cell kill (gross)=[T−C value in days/(3.32)(Td)
Where T−C=time difference in days between Treated and Control tumors to reach a defined end point; and Td is the Tumor Volume Doubling time in days from the best-fit straight line from a log-linear growth plot of the control tumors exponential growth (100-800 mg range). The conversion of the T−C values to the net log10 tumor cell kill are provided by subtraction of the duration of the treatment period from the T−C value and then dividing by 3.32×Td.
The initial experiment, designated NMX-427, tested the effects of GW1843U89 at two different dose levels, 50 and 100 mg/kg/day×17 days. The control group received vehicle alone. […] There were two durable cures, one in each of the dose groups, which remained until termination of the experiment at day 57. The side-effect toxicity as measured by gross body weight loss was minimal in both drug-treated groups, and was greatest in […]. […]

[3] = test system: human colon tumor xenograft model (HCT-8, thymidine kinase (TK)-/-); experiment: HCT-8 xenograft, NX1843 dose schedule study and combinations with 5-FU, NX211 and GW1843 (Table 27); type: in vivo, nude mice
Description: as §1, with “The human colon tumor xenograft model (HCT-8, thymidine kinase (TK)−/−) was obtained from Dr. Youcef M. Rustum (Roswell Park, Buffalo, N.Y.), and established in-house as a useful model for evaluation of thymidylate synthase inhibitors.” left out
as §2, §3, §4, §5
% Regression=100 (Wo−Wi)/Wo; where Wo is the mean tumor weight for treated group at the initiation of treatment and Wi=the mean tumor weight for that group at time some time x after treatment.
In addition to these dose groups the free drug was dosed at 100 mg/kg on days 1-5, and repeated for a second week.

[4] = Sprague Dawley, rat, plasma, rats ~250 g, noncompartmental, group average

Cc1nc2ccc3ccc(CNc4ccc5c(c4)CN(C(CCC(=O)O)C(=O)O)C5=O)cc3c2c(=O)[nH]1 (centres unmarked) [GW1843]
GW1843 Plasma Concentration ([1]; 0.083 h, individual rats): 0.76 µg/mL
GW1843 Plasma Concentration ([1]; 0.250 h, individual rats): 0.20 µg/mL and 0.19 µg/mL
GW1843 Plasma Concentration ([1]; 0.500 h, individual rats): 0.11 µg/mL and 0.10 µg/mL
GW1843 Plasma Concentration ([1]; 1.000 h, individual rats): BLQ and 0.06 μg/mL
concentration at 0.083 h ([1]; Sprague Dawley, rat, plasma, iv, 1 mg/kg, 0.083 h, individual rats): 520 ng/mL
concentration at 0.25 h ([1]; Sprague Dawley, rat, plasma, iv, 1 mg/kg, 0.250 h, individual rats): 180 ng/mL
concentration at 0.5 h ([1]; Sprague Dawley, rat, plasma, iv, 1 mg/kg, 0.500 h, individual rats): 100 ng/mL
concentration at 1 h ([1]; Sprague Dawley, rat, plasma, iv, 1 mg/kg, 1.000 h, individual rats): 60 ng/mL
Cmax ([1]; Sprague Dawley, rat, plasma, iv, 1 mg/kg, rats ~250 g, noncompartmental, group average, read-out: Cmax): 1280 ng/mL
half-life ([1]; Sprague Dawley, rat, plasma, iv, 1 mg/kg, rats ~250 g, noncompartmental, group average, read-out: t½ (elimination half-life) (converted)): ~30 min
Cmax ([1]; Sprague Dawley, rat, plasma, iv, 1 mg/kg, rats, text of Example 2, read-out: maximum achieved concentrations (Cmax) in the plasma): 1300 ng/mL
AUC(0-inf) [1, 4]: 263 ng·h/mL
AUC(0-t) [1, 4]: 219 ng·h/mL
MRT inf [1, 4]: 30 min
clearance ([1]; Sprague Dawley, rat, plasma, rats ~250 g, noncompartmental, group average, read-out: Cl (converted)): 63.4 mL/min/kg
Vd ([1]; Sprague Dawley, rat, plasma, rats ~250 g, noncompartmental, group average, read-out: Vss): 1.89 L/kg
clearance ([1]; Sprague Dawley, rat, plasma, rats, text of Example 2, read-out: plasma clearance (converted)): 63.4 mL/min
log cell kill ([2]; 50 mg/kg/day×17 days): 3.0
durable cures ([2]; 50 mg/kg/day×17 days): one
log cell kill ([2]; 100 mg/kg/day×17 days): 3.3
durable cures ([2]; 100 mg/kg/day×17 days): one
% TGI ([3]; 100 mg/kg, QD1-5 × 2): 80%
Cures ([3]; 100 mg/kg, QD1-5 × 2): 0
LCK ([3]; 100 mg/kg, QD1-5 × 2): 2.4
% Regression day 22 ([3]; 100 mg/kg, QD1-5 × 2, day 22): 0%
log cell kill (LCK) ([3]; iv, NX1843 25 mg/kg d1,8, 15 mg/kg QD(1,3,5)×2 or 7.5 mg/kg QD(1-5)×2, GW1843 100 mg/kg d1-5 ×2, 5FU 100 mg/kg d1,8, NX211 6 mg/kg d1,8, combinations at same doses): 2.4
